Data as given in patent publication US20250382302A1, “Anticancer polyheterocyclic compounds and associated methods” (University of Denver, priority 2024, published 2025).

Legend:
T-47D = test: NCI five-dose testing, T-47D; details: for TGI: Breast Cancer, T-47D; for GI50 / CC50: Homo sapiens, T47D; for CC50: read-out: LC50
MDA-MB-468 = test: NCI five-dose testing, MDA-MB-468; details: for TGI: Breast Cancer; for TGI / GI50: MDA-MB-468; for GI50 / CC50: Homo sapiens; for CC50: MDA-MB-468, read-out: LC50
NCI-H522 = test: NCI five-dose testing, NCI-H522; details: for GI50 / CC50: Homo sapiens; for GI50 / TGI: NCI-H522; for CC50: NCI-H522, read-out: LC50; for TGI: Non-Small Cell Lung Cancer
MOLT-4 = test: NCI five-dose testing, MOLT-4; details: for GI50 / CC50: Homo sapiens; for GI50 / TGI: MOLT-4; for CC50: MOLT-4, read-out: LC50; for TGI: Leukemia
K-562 = test: NCI five-dose testing, K-562; details: for GI50 / CC50: Homo sapiens; for GI50: K562; for CC50: K562, read-out: LC50; for TGI: Leukemia, K-562
CCRF-CEM = test: NCI five-dose testing, CCRF-CEM; details: for GI50 / CC50: Homo sapiens; for CC50: read-out: LC50; for TGI: Leukemia
HL-60(TB) = test: NCI five-dose testing, HL-60(TB); details: for GI50 / CC50: Homo sapiens; for GI50: HL-60; for CC50: HL-60, read-out: LC50; for TGI: Leukemia, HL-60(TB)
RPMI-8226 = test: NCI five-dose testing, RPMI-8226; details: for GI50 / CC50: Homo sapiens; for GI50 / TGI: RPMI-8226; for CC50: RPMI-8226, read-out: LC50; for TGI: Leukemia
KM12 [1] = test: cells; details: Homo sapiens
KM12 [2] = details: Colon Cancer
OVCAR-3 = test: NCI five-dose testing, OVCAR-3
SR = test: NCI five-dose testing, SR
MCF7 = test: NCI five-dose testing, MCF7
SK-MEL-5 = test: NCI five-dose testing, SK-MEL-5; format: cell-based; details: Melanoma
IGROV1 = test: NCI five-dose testing, IGROV1; format: cell-based

| SMILES | TGI (T-47D) | GI50 (T-47D) [nM] | CC50 (T-47D) [µM] | TGI (MDA-MB-468) | GI50 (MDA-MB-468) [nM] | CC50 (MDA-MB-468) [µM] | GI50 (NCI-H522) [nM] | CC50 (NCI-H522) [µM] | TGI (NCI-H522) | GI50 (MOLT-4) [nM] | CC50 (MOLT-4) [µM] | TGI (MOLT-4) | GI50 (K-562) [nM] | CC50 (K-562) [µM] | TGI (K-562) | GI50 (CCRF-CEM) [nM] | CC50 (CCRF-CEM) [µM] | GI50 (RPMI-8226) [nM] | CC50 (RPMI-8226) [µM] | TGI (RPMI-8226) | also measured |
| --- | --- | --- | --- | --- | --- | --- | --- | --- | --- | --- | --- | --- | --- | --- | --- | --- | --- | --- | --- | --- | --- |
| O=C1C2=C(C(=O)c3ccccc31)N1C(=O)N(Cc3ccccc3)C[C@@]13C=C[C@@H]2O3 | 3.26 × 10^−6 | 1390 | 7.64 | 1.59 × 10^−6 | 472 | 4.08 | – | – | – | – | – | – | – | – | – | – | – | – | – | – | – |
| C=CCN(C(=O)C(=O)NC1=CC(=O)c2ccccc2C1=O)c1ccsc1C(=O)OC | 2.61 × 10^−6 | 1320 | 5.14 | 9.41 × 10^−7 | 226 | 3.09 | 1450 | 5.28 | 2.77 × 10^−6 | 1110 | 4.81 | 2.31 × 10^−6 | 1450 | 5.28 | 2.77 × 10^−6 | 1300 | 5.07 | 1470 | 5.28 | 2.79 × 10^−6 | TGI (CCRF-CEM): 2.57 × 10^−6; GI50 (HL-60(TB)): 1080 nM; CC50 (HL-60(TB)): 4.79 µM; TGI (HL-60(TB)): 2.27 × 10^−6 |
| COc1cccc(OC)c1N(Cc1ccoc1)C(=O)C(=O)NC1=CC(=O)c2ccccc2C1=O | 2.81 × 10^−6 | 1480 | 5.34 | 8.99 × 10^−7 | 251 | 3.02 | 1330 | 5.14 | 2.61 × 10^−6 | 462 | 3.98 | 1.57 × 10^−6 | 1460 | 5.37 | 2.80 × 10^−6 | 437 | 3.89 | 1300 | 5.12 | 2.57 × 10^−6 | GI50 (KM12 [1]; KM12): 1250 nM; CC50 (KM12 [1]; KM12, read-out: LC50): 9.84 µM; TGI (KM12 [2]): 3.51 × 10^−6; TGI (CCRF-CEM): 1.48 × 10^−6; GI50 (HL-60(TB)): 282 nM; CC50 (HL-60(TB)): 1.48 µM; TGI (HL-60(TB)): 5.69 × 10^−7; GI50 (OVCAR-3; Homo sapiens, OVCAR-3): 1180 nM; CC50 (OVCAR-3; Homo sapiens, OVCAR-3, read-out: LC50): 4.96 µM; TGI (OVCAR-3; Ovarian Cancer, OVCAR-3): 2.42 × 10^−6 |
| COC1=C[C@H]2[C@H]3C[C@@H]1CN1C(=O)C(=O)N4C5=C(C(=O)c6ccccc6C5=O)[C@]3(OC)[C@]214 | – | – | – | – | – | – | – | – | – | – | – | – | – | – | – | – | – | 803 | 4.71 | 2.05 × 10^−6 | GI50 (SR; Homo sapiens): 1400 nM; CC50 (SR; Homo sapiens, read-out: LC50): 5.31 µM; TGI (SR; Leukemia): 2.72 × 10^−6; TGI (MCF7; Breast Cancer, MCF7): 2.94 × 10^−6; GI50 (MCF7; Homo sapiens, MCF7): 921 nM; CC50 (MCF7; Homo sapiens, MCF7, read-out: LC50): 8.87 µM |
| COC1=C[C@H]2C3=C(C(=O)c4ccccc4C3=O)N3C(=O)C(=O)N(Cc4ccco4)[C@]23C=C1 | – | – | – | 1.35 × 10^−6 | 177 | 7.96 | – | – | – | – | – | – | – | – | – | – | – | – | – | – | GI50 (SK-MEL-5; Homo sapiens): 1130 nM; CC50 (SK-MEL-5; Homo sapiens, read-out: LC50 (the source's name)): 9.08 µM; TGI (SK-MEL-5): 3.21 × 10^−6; GI50 (IGROV1; Homo sapiens, IGROV-1, Ovarian Cancer): 1380 nM; CC50 (IGROV1; Homo sapiens, IGROV-1, Ovarian Cancer, read-out: LC50 (the source's name)): ≥ 100 µM; TGI (IGROV1; Ovarian Cancer): 6.38 × 10^−6 |
